In one assay the test system is Period1 gene. Put plainly: Period1 gene expression in cultured skin fibroblastic cells. In kind it is cell-based, human. On the procedure:
As the cultured human fibroblastic cells, fibroblastic cells from normal human skin were purchased (Cell Application, Inc.) and used in the experiments. They were inoculated in DMEM medium supplemented with 10% FBS, 20 mM HEPES, Glutamax and antibacterial agents and cultured at 37° C. in 5% CO2. On the 6th day of culture, 50 ng/mL of cortisol or 10 μM of forskolin was added, and the samples were harvested at various times after time 0, which was defined as the time immediately after the addition of cortisol or forskolin. RNA was extracted from the cells with a commercially available RNA extraction kit, and the amounts of expression of the intended genes were measured by RT-PCR technology using commercially available PCR primers (Perfect Real Time Primer, Takara Bio). As for clock genes, amounts of expression of Period (represented by Period1) and Bmal1, which are involved in the core system, were determined. Similarly, the amounts of expression of a housekeeping gene RPLP0 were quantified and used as an internal standard to calculate the relative expression of the intended genes to RPLP0. […]

The next assay deals with Bmal1 gene. Put plainly: Bmal1 gene expression (RT-PCR, relative to RPLP0) in cultured human skin fibroblastic cells. In kind it is cell-based. To be noted: expression at 2 and 16 hours after stimulation. The procedure:
As the cultured human fibroblastic cells, fibroblastic cells from normal human skin were purchased (Cell Application, Inc.) and used in the experiments. They were inoculated in DMEM medium supplemented with 10% FBS, 20 mM HEPES, Glutamax and antibacterial agents and cultured at 37° C. in 5% CO2. On the 6th day of culture, 50 ng/mL of cortisol or 10 μM of forskolin was added, and the samples were harvested at various times after time 0, which was defined as the time immediately after the addition of cortisol or forskolin. RNA was extracted from the cells with a commercially available RNA extraction kit, and the amounts of expression of the intended genes were measured by RT-PCR technology using commercially available PCR primers (Perfect Real Time Primer, Takara Bio). As for clock genes, amounts of expression of Period (represented by Period1) and Bmal1, which are involved in the core system, were determined. Similarly, the amounts of expression of a housekeeping gene RPLP0 were quantified and used as an internal standard to calculate the relative expression of the intended genes to RPLP0. […] Test substances were evaluated for the expression modulating effect on a Bmal gene based on the amount of gene expression at 16 hours after stimulation. […]

As to `C=C1CC/C=C(\C)CC[C@@H]2[C@@H]1CC2(C)C` [beta-Caryophyllene], the “Induction of Period gene expression rhythm or promotion of its expression (in words)” value with Period1 gene is recorded as “can induce expression rhythm of a Period gene or promote its expression”.

With `C[C@]12CCC(=O)C=C1CC[C@@H]1[C@@H]2[C@@H](O)C[C@@]2(C)[C@H]1CC[C@]2(O)C(=O)CO` [cortisol], the “Induction of Bmal1 expression rhythm and increase of Bmal1 gene expression (in words)” value in the assay with Bmal1 gene is recorded as “significantly increase amounts of gene expression of Bmal1”.

For the origin of these results see patent publication US20130022635A1, “Expression Modulator For Clock Gene Bmal” (SHISEIDO COMPANY, LTD., priority 2010, published 2013).
